Data from patent US4174406A, “Terpenylaminoalkanol fish toxicants” (priority 1977, dated 1979).
In brackets after ≈: the same amount, converted by molar mass.

Tests used:
White sucker [1] = assay: Outdoor plastic pool test (Table 3); assay type: in vivo, Catostomus commersoni; conditions: for % kill: 96 hour, 50% formulation (hydrochloride salt); for survival (in words): white suckers
Protocol: (§1) N-(2-hydroxyethyl) digeranylamine was tested as a selective fish toxicant in outdoor pools stocked with various fish species and lined with black plastic using 50% water soluble formulations (hydrochloride salt). The formulation was added to each of four pools of 4,000-liter capacity at concentrations of 0.10, 0.15, 0.20, and 0.30 mg/liter. Another pool containing the same number, size, and species of fish served as a control. The test water had algal blooms, a pH of about 8.5, and a total hardness of about 200 mg/liter as CaCo3. The temperature was cool enough (15°-16°C.) to permit the use of trout.
(§2) Fish were obtained from state and federal hatcheries and maintained prior to testing by a trained fish culturist. Fish of total length 2-5 cm were used in laboratory tests while for outdoor tests small fish (4-6 cm in length) and larger carp and buffalo (Ictiobus cyprinellus) were used.
(§3) In all tests 10 fish of each were exposed to selective concentrations of the toxicant. Mortalities were observed and recorded at 1,2 and 6 hours on the first day and once daily thereafter, during 96 hour exposure.
(§4) Outdoor pool tests were conducted using 50% formulation of the toxicant N-(2-hydroxyethyl) digeranylamine as indicated in Example 8. […] If selective control of white sucker and common carp is desired in an environment which includes rainbow trout, one should employ an effective concentration of toxicant which is at least as great as 0.05 mg/liter but less than 0.1 mg/liter. As a practical fishery practice in the northern United States and Canada, rainbow trout are not usually stocked in bodies of water containing the common carp species; the habitat conditions including water temperature and available oxygen of these species are usually quite different. Common carp and rainbow trout have quite different oxygen and temperature requirements and these differences generally preclude both species cohabitating under natural conditions. In this case the useful range to control common carp and white sucker can be much broader, i.e. 0.1 to 0.3 mg/liter.

Largemouth buffalo = assay: Outdoor plastic pool test (Table 3); assay type: in vivo, Ictibous cyprinellus; conditions: 96 hour, 50% formulation (hydrochloride salt)
Protocol: as §1, §2, §3, §4

Bluegill = assay: Laboratory fish toxicity test (Table 1); assay type: in vivo, Lepomis macrochirus; conditions: tech, 12 C, soft water
Protocol: as §2, §3
(§5) Laboratory tests were also conducted in soft water 12° C. wherein the toxicant was evaluated against fifteen species of fish including both cold and warm water varieties. In Table 1, the LC 50 toxicity values for N-(2-hydroxyethyl) digeranylamine is shown for various species. LC50 is defined as the amount (mg/liter) of toxicant required to kill 50 percent of the particular fish species at 95% confidence interval.

Smallmouth bass = assay: Laboratory fish toxicity test (Table 1); assay type: in vivo, Micropterus dolomieui; conditions: tech, 12 C, soft water
Protocol: as §2, §3, §5

Dragonfly naiad = assay: Static bioassay in invertebrates (Table 2); assay type: in vivo, Macromia sp.; conditions: 96 hours, tech, 17 C, soft reconstituted water 42 mg/l hardness
Protocol: The effect of the various toxicants on common invertebrate species was determined in a static test conducted 17° C. The invertebrates tested were collected from natural populations or purchased from commercial suppliers. They were held in soft water in fiberglass tanks in the laboratory or in outdoor plastic swimming pools. Mortality was observed during holding, and only healthy organisms were used for the toxicity tests. At least 10 organisms of nine species were exposed to each concentration in static tests.

White sucker [2] = assay: Laboratory fish toxicity test (Table 1); assay type: in vivo, Catostomus commersoni; conditions: tech, 12 C, soft water
Protocol: as §2, §3, §5

Black bullhead = assay: Outdoor plastic pool test (Table 3); assay type: in vivo, Ictalurus melas; conditions: for % kill: 96 hour, 50% formulation (hydrochloride salt)
Protocol: as §1, §2, §3, §4

Coho salmon = assay: Laboratory fish toxicity test (Table 1); assay type: in vivo, Oncorhynchus kisutch; conditions: tech, 12 C, soft water
Protocol: as §2, §3, §5

Chinook salmon = assay: Laboratory fish toxicity test (Table 1); assay type: in vivo, Oncorhynchus tschawytscha; conditions: tech, 12 C, soft water
Protocol: as §2, §3, §5

Fathead minnow = assay: Laboratory fish toxicity test (Table 1); assay type: in vivo, Pimephales promelas; conditions: tech, 12 C, soft water
Protocol: as §2, §3, §5

[3] = test system: Chinook, coho salmon, rainbow trout, goldfish, fathead, minnow, banded killfish, and walleye; assay: Relative resistance of fish species in laboratory tests; assay type: in vivo; conditions: soft water, 12 C
Protocol: as §5

Goldfish [4] = assay: Laboratory fish toxicity test (Table 1); assay type: in vivo, Carassius auratus; conditions: tech, 12 C, soft water
Protocol: as §2, §3, §5

Green sunfish [5] = assay: Laboratory fish toxicity test (Table 1); assay type: in vivo, Lepomis cyanellus; conditions: tech, 12 C, soft water
Protocol: as §2, §3, §5

Goldfish [6] = assay: Outdoor plastic pool test (Table 3); assay type: in vivo, Carassius auratus; conditions: for % kill: 96 hour, 50% formulation (hydrochloride salt)
Protocol: as §1, §2, §3, §4

Rainbow trout = assay: Laboratory fish toxicity test (Table 1); assay type: in vivo, Salmo gairdneri; conditions: tech, 12 C, soft water
Protocol: as §2, §3, §5

Green sunfish [7] = assay: Influence of pH on toxicity to green sunfish in soft water (Table 4); assay type: in vivo, Lepomis cyanellus; conditions: tech, 12 C
Protocol: To determine the influence of pH of the water used on the toxicity of the terpenylaminoalkanols evaluated, experiments were conducted with green sunfish (Lepomis cyanellus) using soft water at 12° C. and chemically buffered over the range of pH 6 to pH 9.

Carp = assay: Laboratory fish toxicity test (Table 1); assay type: in vivo, Cyprinus carpio; conditions: tech, 12 C, soft water
Protocol: as §2, §3, §5

[8] = 96 hours, listed as N-(2-hydroxyethyl) Digeranylamine, 5760 min

Question: `CC(C)=CCC/C(C)=C/CN(C/C=C(\C)CCC=C(C)C)CCO` [N-(2-hydroxyethyl) digeranylamine] was tested. Which “% kill” value (White sucker [1]; 0.10 mg/l) did it give?
Answer: 20%

Question: What about the “% kill” value (White sucker [1]; 0.15 mg/l) of the same molecule?
Answer: 70%

Question: What about the “% kill” value (White sucker [1]; 0.20 mg/l) of the same molecule?
Answer: 100%

Question: What about the “% kill” value (White sucker [1]; 0.30 mg/l) of the same molecule?
Answer: 100%

Question: And the “survival (in words)” value (White sucker [1]; 0.2 mg/liter or higher)?
Answer: none survived

Question: And the “survival (in words)” value (White sucker [1]; 0.10 and 0.15 mg/liter)?
Answer: Some white suckers and larger carp (19 cm) survived

Question: And the “% kill” value (Largemouth buffalo; 0.10 mg/l)?
Answer: 0%

Question: And the “% kill” value (Largemouth buffalo; 0.15 mg/l)?
Answer: 20%

Question: And the “% kill” value (Largemouth buffalo; 0.20 mg/l)?
Answer: 20%

Question: What about the “% kill” value (Largemouth buffalo; 0.30 mg/l) of the same molecule?
Answer: 100%

Question: What about the LC50 (Bluegill; 3 hours) of the same molecule?
Answer: 1.56 µg/mL (≈ 4.68 µM)

Question: And the LC50 (Bluegill; 6 hours)?
Answer: 1.13 µg/mL (≈ 3.39 µM)

Question: What about the LC50 (Bluegill; 24 hours) of the same molecule?
Answer: 0.720 µg/mL (≈ 2.16 µM)

Question: And the LC50 (Bluegill; 96 hours, 5760 min)?
Answer: 0.72 µg/mL (≈ 2.16 µM)

Question: What about the LC50 (Bluegill; [8]) of the same molecule?
Answer: 0.720 µg/mL (≈ 2.16 µM)

Question: And the LC50 (Smallmouth bass; 3 hours)?
Answer: 1.36 µg/mL (≈ 4.08 µM)

Question: And the LC50 (Smallmouth bass; 6 hours)?
Answer: 0.480 µg/mL (≈ 1.44 µM)

Question: What about the LC50 (Smallmouth bass; 24 hours) of the same molecule?
Answer: 0.420 µg/mL (≈ 1.26 µM)

Question: What about the LC50 (Smallmouth bass; 96 hours, 5760 min) of the same molecule?
Answer: 0.37 µg/mL (≈ 1.11 µM)

Question: What about the LC50 (Smallmouth bass; [8]) of the same molecule?
Answer: 0.237 µg/mL (≈ 0.711 µM)

Question: And the LC50 (Dragonfly naiad)?
Answer: 2.00 µg/mL (≈ 6 µM)

Question: And the LC50 (White sucker [2]; 3 hours)?
Answer: 0.540 µg/mL (≈ 1.62 µM)

Question: What about the LC50 (White sucker [2]; 6 hours) of the same molecule?
Answer: 0.136 µg/mL (≈ 0.408 µM)

Question: What about the LC50 (White sucker [2]; 24 hours) of the same molecule?
Answer: 0.0690 µg/mL (≈ 0.207 µM)

Question: What about the “% kill” value (Black bullhead; 0.10 mg/l) of the same molecule?
Answer: 0%

Question: And the “% kill” value (Black bullhead; 0.15 mg/l)?
Answer: 0%

Question: And the “% kill” value (Black bullhead; 0.20 mg/l)?
Answer: 0%

Question: What about the “% kill” value (Black bullhead; 0.30 mg/l) of the same molecule?
Answer: 0%

Question: What about the “survival (in words)” value (Black bullhead; black bullhead, 0.3 mg/liter, 50% formulation) of the same molecule?
Answer: complete survival

Question: And the LC50 (Coho salmon; 3 hours)?
Answer: 0.320 µg/mL (≈ 0.959 µM)

Question: What about the LC50 (Coho salmon; 6 hours) of the same molecule?
Answer: 0.240 µg/mL (≈ 0.72 µM)

Question: And the LC50 (Coho salmon; 24 hours)?
Answer: 0.200 µg/mL (≈ 0.6 µM)

Question: What about the LC50 (Coho salmon; 96 hours) of the same molecule?
Answer: 0.142 µg/mL (≈ 0.426 µM)

Question: And the LC50 (Chinook salmon; 3 hours)?
Answer: 0.300 µg/mL (≈ 0.899 µM)

Question: What about the LC50 (Chinook salmon; 6 hours) of the same molecule?
Answer: 0.210 µg/mL (≈ 0.63 µM)

Question: And the LC50 (Chinook salmon; 24 hours)?
Answer: 0.167 µg/mL (≈ 0.501 µM)

Question: And the LC50 (Chinook salmon; 96 hours)?
Answer: 0.129 µg/mL (≈ 0.387 µM)

Question: What about the LC50 (Fathead minnow; 6 hours) of the same molecule?
Answer: 1.55 µg/mL (≈ 4.65 µM)

Question: And the LC50 (Fathead minnow; 24 hours)?
Answer: 0.560 µg/mL (≈ 1.68 µM)

Question: And the LC50 (Fathead minnow; 96 hours)?
Answer: 0.303 µg/mL (≈ 0.908 µM)

Question: And the “resistance relative to carp or white suckers” value [3]?
Answer: more resistant to the toxicant than carp (Caprinus carpio) or white suckers (Castostmus commersoni)

Question: What about the LC50 (Goldfish [4]; 24 hours) of the same molecule?
Answer: 0.961 µg/mL (≈ 2.88 µM)

Question: What about the LC50 (Goldfish [4]; 96 hours) of the same molecule?
Answer: 0.290 µg/mL (≈ 0.869 µM)

Question: What about the LC50 (Green sunfish [5]; 24 hours) of the same molecule?
Answer: 0.640 µg/mL (≈ 1.92 µM)

Question: What about the LC50 (Green sunfish [5]; 96 hours) of the same molecule?
Answer: 0.640 µg/mL (≈ 1.92 µM)

Question: What about the “% kill” value (Goldfish [6]; 0.10 mg/l) of the same molecule?
Answer: 0%

Question: What about the “% kill” value (Goldfish [6]; 0.15 mg/l) of the same molecule?
Answer: 0%

Question: What about the “% kill” value (Goldfish [6]; 0.20 mg/l) of the same molecule?
Answer: 0%

Question: And the “% kill” value (Goldfish [6]; 0.30 mg/l)?
Answer: 0%

Question: And the “survival (in words)” value (Goldfish [6]; goldfish, 0.3 mg/liter, 50% formulation)?
Answer: complete survival

Question: And the LC50 (Rainbow trout; 3 hours)?
Answer: 0.220 µg/mL (≈ 0.66 µM)

Question: What about the LC50 (Rainbow trout; 6 hours) of the same molecule?
Answer: 0.189 µg/mL (≈ 0.567 µM)

Question: What about the LC50 (Rainbow trout; 24 hours) of the same molecule?
Answer: 0.187 µg/mL (≈ 0.561 µM)

Question: What about the LC50 (Rainbow trout; 96 hours) of the same molecule?
Answer: 0.136 µg/mL (≈ 0.408 µM)

Question: What about the LC50 (Green sunfish [7]; pH 6.0, 3 hours) of the same molecule?
Answer: 6.34 µg/mL (≈ 19 µM)

Question: And the LC50 (Green sunfish [7]; pH 6.0, 6 hours)?
Answer: 5.00 µg/mL (≈ 15 µM)

Question: What about the LC50 (Green sunfish [7]; pH 6.0, 24 hours) of the same molecule?
Answer: 2.84 µg/mL (≈ 8.51 µM)

Question: What about the LC50 (Green sunfish [7]; pH 6.0, 96 hours) of the same molecule?
Answer: 1.85 µg/mL (≈ 5.55 µM)

Question: And the LC50 (Green sunfish [7]; pH 7.5, 3 hours)?
Answer: 2.47 µg/mL (≈ 7.4 µM)

Question: And the LC50 (Green sunfish [7]; pH 7.5, 6 hours)?
Answer: 1.64 µg/mL (≈ 4.92 µM)

Question: And the LC50 (Green sunfish [7]; pH 7.5, 24 hours)?
Answer: 1.00 µg/mL (≈ 3 µM)

Question: And the LC50 (Green sunfish [7]; pH 7.5, 96 hours)?
Answer: 0.829 µg/mL (≈ 2.49 µM)

Question: What about the LC50 (Green sunfish [7]; pH 8.0, 24 hours) of the same molecule?
Answer: 0.520 µg/mL (≈ 1.56 µM)

Question: What about the LC50 (Green sunfish [7]; pH 8.0, 96 hours) of the same molecule?
Answer: 0.520 µg/mL (≈ 1.56 µM)

Question: What about the LC50 (Green sunfish [7]; pH 9.0, 3 hours) of the same molecule?
Answer: 0.870 µg/mL (≈ 2.61 µM)

Question: And the LC50 (Green sunfish [7]; pH 9.0, 24 hours)?
Answer: 0.360 µg/mL (≈ 1.08 µM)

Question: And the LC50 (Green sunfish [7]; pH 9.0, 96 hours)?
Answer: 0.268 µg/mL (≈ 0.803 µM)

Question: What about the LC50 (Carp; 6 hours) of the same molecule?
Answer: 1.34 µg/mL (≈ 4.02 µM)

Question: And the LC50 (Carp; 24 hours)?
Answer: 0.0718 µg/mL (≈ 0.215 µM)

Question: And the LC50 (Carp; 96 hours, 5760 min)?
Answer: 0.050 µg/mL (≈ 0.15 µM)

Question: And the LC50 (Carp; [8])?
Answer: 0.0507 µg/mL (≈ 0.152 µM)
